The values below come from the NIST ThermoML archive (doi:10.1016/j.fluid.2007.03.021).

The conditions of the data set: Liquid.

SMILES strings stand for the structures. Numbers after ± are expanded uncertainties.

In general, viscosity refers to the internal friction of a fluid under shear. With `CCO` [ethanol], the viscosity (298.15 K, 101.33 kPa, Capillary tube (Ostwald / Ubbelohde) method) was 1.082 ± 0.009 mPa·s. Moreover, the Normal boiling temperature (Ebulliometric method (Recirculating still)) was found to be 78.28 ± 0.05 °C.
